Experimental data as given in patent US12226386B2, “Compositions and methods for treating biofilms” (The Regents of the University of California, priority 2018, dated 2025).

How the values were obtained:
[1] = system: bacteria (S. aureus) biofilm and fungal (C. albicans) biofilm; experiment: sustained inhibition biofilm assay, bacterial and fungal taken together; assay type: cell-based, Staphylococcus aureus; Candida albicans; conditions: 1% amino acid
Description: (§1) Other amino acids in the blood of animals could combat bacterial and fungal biofilm and therefore may be useful in treating these bacterial and fungal infections that would lie on the external surfaces of infected animals such as humans and could also be used to combat these pathogens on instruments and surfaces that need to be treated. Two types of biofilm assays were performed: a sustained inhibition assay and a disruption assay. The sustained inhibition assay assessed the compound's ability to prevent biofilm development throughout all stages of biofilm formation, while the disruption assay assessed the compound's ability to break up an existing mature biofilm.
(§2) For fungal biofilm assays, all solutions were prepared in RPMI 1640 medium. All bacterial biofilm solutions were prepared in Tryptic Soy Broth (TSB), supplemented with 1% glucose (henceforth referred to as TSB-G). All subsequent procedures were performed in a manner that maintained sterility. A solution of each amino acid to be tested was prepared in weight to volume concentrations ranging from 0.1-5.0%. Amino acids were also tested in combinations. Compound solutions were homogenized with gentle agitation in the dark (4° C., 24 hours) before use.
(§3) Fungal strains were streaked on Yeast Peptone Dextrose (YPD) agar plates and incubated at 30° C. for 48 hours. A single colony from each strain to be tested was inoculated into YPD broth and grown for 12 hours, at 30° C., shaking at 225 rpm. For the fungal biofilm inhibition assay, 1 μl of saturated overnight cell culture was added to either 80 μL of RPMI-1640 or RPMI-1640 supplemented with the amino acid compound solution to be tested, in a 384-well plate. […] Media was carefully aspirated and the biofilm was measured by optical density at 600 nm. […] Media was carefully aspirated and the biofilm was measured by optical density at 600 nm. […]
(§4) Bacterial strains were streaked on Blood Agar plates (5% sheep blood in Tryptic Soy Agar) and incubated at 37° C. for 24 hours. […] Media was carefully aspirated and the biofilm was measured by optical density at 600 nm. […]

[2] = system: bacteria (S. aureus) biofilm and fungal (C. albicans) biofilm; experiment: disruption biofilm assay, bacterial and fungal taken together; assay type: cell-based, Staphylococcus aureus; Candida albicans
Description: as §1, §2, §3, §4

[3] = system: bacterial biofilms (MRSA); experiment: biofilm assays (sustained inhibition and/or disruption), bacterial; assay type: cell-based, Staphylococcus aureus; conditions: Tables 4 and 5
Description: as §1, §2
Bacterial strains were streaked on Blood Agar plates (5% sheep blood in Tryptic Soy Agar) and incubated at 37° C. for 24 hours. A single colony from each strain to be tested was inoculated in a TSB broth and grown for 12 hours, at 37° C. shaking at 225 rpm. For the bacterial biofilm inhibition assays, 1 μL of saturated overnight cell culture was added to either 80 μL of TSB-G, or TSB-G supplemented with the amino acid compound solution to be tested, in a 384-well plate. The cells were allowed to adhere to the plate for 60 minutes at 37° C. without shaking. The media was carefully aspirated and 80 μL of TSB-G, or TSB-G supplemented with the amino acid compound solution was added to the plate. The plate was further incubated for 24 hours at 37° C. without shaking. Media was carefully aspirated and the biofilm was measured by optical density at 600 nm. Eight or twelve replicates were performed for each tested condition and the reported values are normalized to the control (TSB-G media only). For the bacterial biofilm disruption assays, 80 μL of TSB-G was added to the plate, along with 1 μL of overnight cell culture. The cells were allowed to adhere to the plate for 60 minutes at 37° C. with no shaking. The media was carefully aspirated and 80 μL of TSB-G was added to the plate. The plate was further incubated for 24 hours at 37° C. with no shaking. Media was carefully aspirated from the mature biofilm and 80 μL of TSB-G, or TSB-G supplemented with the amino acid to be tested, was gently added to the plate. The plate was further incubated for 24 hours at 37° C. without shaking. Media was aspirated and the biofilm was measured by optical density at 600 nm. Twelve replicates were performed for each tested condition and the reported values are normalized to the control (TSB-G media only).

[4] = disruption, bacterial and fungal biofilm, 1% amino acid

Compound | Reduce Both [1] | Reduce Both [2, 4] | effect on MRSA biofilms in inhibition and disruption assays [3] | Reduce Both [2]
N[C@@H](CC(=O)O)C(=O)O [Aspartic Acid, L-aspartic acid] | ●● (two dots [i.e. ●●] signifies major effect (greater than about 30% change)) | ●● (two dots [i.e. ●●] signifies major effect (greater than about 30% change)) | both inhibited and disrupted | –
N[C@@H](CS)C(=O)O [Cysteine, L-cysteine] | ●● (two dots [i.e. ●●] signifies major effect (greater than about 30% change)) | ●● (two dots [i.e. ●●] signifies major effect (greater than about 30% change)) | both inhibited and disrupted | –
N[C@@H](CCC(=O)O)C(=O)O [Glutamic Acid, L-glutamic acid] | ●● (two dots [i.e. ●●] signifies major effect (greater than about 30% change)) | – | both inhibited and disrupted | ● (a single dot [i.e. ●] signifies minor effect (from about 10 to about 30% change))
